Data as given in US20230227406A1, “MODULATORS OF E3 LIGASES” (Rekindle Therapeutics Inc., priority 2020, published 2023).

Tests used:
[1] = system: PD-L1; test: Western blot of PD-L1 in Hs578T cells; assay type: cell-based, human; settings: 48 hours, indicated concentrations of compound
Method: Hs578T cells (human triple negative breast cancer) were treated with the indicated concentration of COMPOUND 1 for 48 hours prior to harvesting. The “0” concentration is DMSO only (0.5%, same as was used for compound doses). […] Analysis occurred via western blot using the indicated antibodies. Quantification by densitometry of the bands from the western blot are presented for PD-L1/Vinculin (loading control) in the absence of interferon gamma, and glycosylated/non-glycosylated PD-L1 in the presence of interferon gamma.
The data presented here are consistent with the previous replicate in Hs578T cells, and the observation is preserved in another TNBC cell line, BT-20. COMPOUND 1 increases PD-L1 levels and the glycosylated PD-L1/non-glycosylated PD-L1 ratio. Methods are the same as the previous replicate, using the indicated doses.
Hs578T cells (human triple negative breast cancer) were treated with the indicated concentration of COMPOUND 6 for 48 hours before harvesting. The “0” concentration is DMSO only (0.5%, same as was used for compound doses). […] Analysis occurred via western blot using the indicated antibodies. PD-L1 protein levels were reduced relative to the vinculin loading control upon compound treatment. This effect is observed in the presence and absence of interferon gamma (IFN, 25 ng/mL in cell culture media during the drug treatment).
Hs578T cells (human triple negative breast cancer) were treated with the indicated concentration of COMPOUND 7 for 48 hours prior to harvesting. The “0” concentration is DMSO only (0.5%, same as was used for compound doses). […] Analysis occurred via western blot using the indicated antibodies. PD-L1 protein levels were reduced relative to the vinculin loading control upon 319-02 treatment.
The data presented here are consistent with the previous replicate in Hs578T cells. COMPOUND 7 reduces the PD-L1/vinculin loading control ratio. Methods are the same as the previous replicate, using the indicated doses.
Hs578T cells (human triple negative breast cancer) were treated with the indicated concentration of COMPOUND 8 for 48 hours and then harvested. The “0” concentration is DMSO only (0.5%, same as was used for compound doses). […] Analysis occurred via western blot using the indicated antibodies.
PD-L1-APC (BD Biosciences) and a matched isotype control were used to visualize PD-L1 cell surface expression by flow cytometry (1:250 dilution). As shown by western blot, the knockdown of WWP1 yielded increased PD-L1 protein levels, including an increase in the glycosylated band.
Total RNA was isolated using an RNeasy kit from Qiagen.

[2] = target: T1, WWP1 (Homo sapiens, UniProt Q9H0M0); test: WWP1 MALDI-MS ubiquitin depletion assay (auto-ubiquitination); assay type: biochemical; settings: 30 min pre-incubation, 90 minutes at 37° C.
T1 construct: purchased Ubiquigent 63-0034-025/30033/D
T1 sequence (Q9H0M0 whole entry): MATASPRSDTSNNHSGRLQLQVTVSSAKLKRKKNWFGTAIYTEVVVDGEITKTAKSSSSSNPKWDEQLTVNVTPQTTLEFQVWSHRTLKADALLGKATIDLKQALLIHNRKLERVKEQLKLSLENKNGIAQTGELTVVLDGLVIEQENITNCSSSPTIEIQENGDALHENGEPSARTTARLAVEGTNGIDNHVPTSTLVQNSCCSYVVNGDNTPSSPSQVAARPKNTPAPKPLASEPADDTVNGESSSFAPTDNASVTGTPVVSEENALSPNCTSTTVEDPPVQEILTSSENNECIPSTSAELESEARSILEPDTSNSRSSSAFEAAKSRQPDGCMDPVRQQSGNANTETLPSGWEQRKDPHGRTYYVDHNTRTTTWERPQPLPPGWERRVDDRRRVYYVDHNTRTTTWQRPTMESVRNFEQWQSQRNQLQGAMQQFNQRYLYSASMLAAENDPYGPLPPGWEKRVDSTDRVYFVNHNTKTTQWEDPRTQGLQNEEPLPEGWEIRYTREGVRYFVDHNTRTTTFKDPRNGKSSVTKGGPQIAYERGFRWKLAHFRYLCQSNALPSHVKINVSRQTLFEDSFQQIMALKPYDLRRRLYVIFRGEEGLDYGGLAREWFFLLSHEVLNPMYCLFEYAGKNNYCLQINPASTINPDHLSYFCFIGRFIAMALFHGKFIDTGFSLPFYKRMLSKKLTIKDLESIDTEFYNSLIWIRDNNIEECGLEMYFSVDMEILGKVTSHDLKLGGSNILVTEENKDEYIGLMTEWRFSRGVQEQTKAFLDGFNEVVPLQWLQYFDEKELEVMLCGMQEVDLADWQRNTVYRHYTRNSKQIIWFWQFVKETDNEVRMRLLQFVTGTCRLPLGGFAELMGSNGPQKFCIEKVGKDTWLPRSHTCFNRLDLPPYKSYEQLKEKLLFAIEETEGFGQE
Method: Modulators designed in these ways were tested for HECT domain E3 ligase activity in a MALDI TOF assay of auto-ubiquitination (De Cesare et al, Cell Chem. Biol, 2018, 25, 1117)
UBE1 (E-305 Boston Biochem), UBE2D1 (E2-616 Boston Biochem), WWP1 (Ubiquigent #63-0034-025/30033/D), ubiquitin variants (Boston Biochem; ubiquitin: U-100H; WT-His6-Ub: U-530; K27R-His6-Ub:UM-HK27R; K27O-His6-Ub: UM-HK27O), alpha-cyano-4-hydroxycinnamic acid (CHCA), ATP, trifluoroacetic acid (Millipore Sigma, St. Louis, Mo.), 384-well round-bottom polypropylene microplates (781280, Greiner, Stonehouse, UK), 384-well Anchorchip MALDI targets and Peptide Calibration Standard II (Bruker Daltonics, Billerica, Mass.).
Protocol: The WWP1 ubiquitin depletion assay consists of recombinant UBE1 (5 nM), UBE2D1 conjugating enzyme (60 nM) and WWP1 ligase (50 nM) in a 10 mM HEPES pH 8.0 containing 0.1 mg/mL BSA, 10 mM MgCl2, 1 mM ATP and 1500 nM ubiquitin. Screening was performed by dispensing 3.5 μL of an enzyme solution containing UBE1 (10 nM), UBE2D1 (120 nM), WWP1 (100 nM), ubiquitin ([…]) to a 384-well round bottom polypropylene plates followed by incubation at 37° C. for 30 min. Reactions were initiated by the addition of 3.5 μL of an ATP solution (2000 nM) then incubated at 37° C. for 90 minutes before being quenched by the addition of 5 μL of a 50 mM EDTA solution containing 750 nM of a ubiquitin labelled with a histidine expression tag (m/z=9460.0 Da).
For detection of ubiquitin and the ubiquitin-6His internal standards, 50 nL of quenched reaction was dispensed onto a 384-well Anchorchip MALDI target plate (Bruker) pre-coated with a uniform layer of CHCA crystals immediately followed by 200 nL of a 3 mg/mL CHCA matrix solution (6 mg of CHCA dissolved in 0.7 mL of 100% ethanol and 1.3 mL of 0.31% aqueous TFA) using a TTP Labtech Mosquito liquid handler. Spectra for all reactions were acquired on a Bruker AutoFlex II in positive linear TOF mode from 1000 laser shots with ion suppression below 4000 Da. Spectra were analyzed for response using a centroid peak-fitting algorithm to quantify ubiquitin (m/z=8564.0 Da) and ubiquitin-6His (m/z=9460.0 Da) followed taking the ratio of intensities of ubiquitin and the ubiquitin-6His internal standard.
For compound screening, 140 nL of diluted compound in 100% DMSO was added to the WWP1 enzyme solution and pre-incubated for 30 minutes prior to reaction initiation.

IC50 [2] [µM]	Compound	PD-L1 levels (relative to vinculin loading control) [1]	PD-L1 glycosylation (glycosylated/non-glycosylated PD-L1 ratio) [1]
32	C#CCNC(=O)c1ccc2c(Cc3c[nH]c4ccccc34)c[nH]c2c1 [Compound 6, 3-((1H-indol-3-yl)methyl)-N-(prop-2-yn-1-yl)-1H-indole-6-carboxamide]	reduced	
15	C#CCN(CCO)C(=O)c1ccc2c(Cc3c[nH]c4ccccc34)c[nH]c2c1 [Compound 7, 3-((1H-indol-3-yl)methyl)-N-(2-hydroxyethyl)-N-(prop-2-yn-1-yl)-1H-indole-6-carboxamide]	reduces	
5	C#Cc1ccc2c(C=O)cn(-c3ccccc3)c2c1 [Compound 1, 6-ethynyl-1-phenyl-1H-indole-3-carbaldehyde]	increases	increases
